Results: ChEMBL document CHEMBL2040771, “Discovery of a potent inhibitor of anaplastic lymphoma kinase with in vivo antitumor activity” (ACS Med Chem Lett, 2010)
The source made the active and inactive calls. The calls are words filed in the database; no cut-off is given here.

Columns and labels:
Mus musculus [1] = test: Clearance with respect to hepatic blood flow in SCID mouse at 1 mg/kg, iv; format: ADME, organism-based, Liver; parameters: dose 1 mg/kg, route intravenous; settings: in vivo
[2] = biological target: Ribosomal protein S6 kinase alpha-2 (Homo sapiens) (UniProt Q15349); test: Inhibition of RPS6KA2 at 1 uM
[3] = biological target: Ribosomal protein S6 kinase alpha-1 (Homo sapiens) (UniProt Q15418); test: Inhibition of RPS6KA1 at 0.1 uM
[4] = Volume of distribution in beagle dog at 1 mg/kg, iv; format: ADME, organism-based, Canis lupus familiaris; parameters: dose 1 mg/kg, route intravenous; settings: in vivo
Mus musculus [5] = test: Toxicity in SCID mouse xenografted with human SUP-M2 cells at 55 mg/kg, po BID for 12 days; format: organism-based; parameters: dose 55 mg/kg, route oral; settings: in vivo, 288 h
[6] = biological target: Tyrosine-protein kinase Srms (Homo sapiens) (UniProt Q9H3Y6); test: Inhibition of SRMS at 0.1 uM
[7] = system: Mast/stem cell growth factor receptor Kit (Homo sapiens), P10721 [D816V]; test: Inhibition of KIT D816V mutant at 0.1 uM
[8] = biological target: T1, ALK tyrosine kinase receptor (Homo sapiens, UniProt Q9UM73); test: Inhibition of NPM-ALK autophosphorylation in human KARPAS299 cells; format: cell-based; settings: karpas-299
Target sequence in this assay (Q9UM73 19-1620 limits assumed): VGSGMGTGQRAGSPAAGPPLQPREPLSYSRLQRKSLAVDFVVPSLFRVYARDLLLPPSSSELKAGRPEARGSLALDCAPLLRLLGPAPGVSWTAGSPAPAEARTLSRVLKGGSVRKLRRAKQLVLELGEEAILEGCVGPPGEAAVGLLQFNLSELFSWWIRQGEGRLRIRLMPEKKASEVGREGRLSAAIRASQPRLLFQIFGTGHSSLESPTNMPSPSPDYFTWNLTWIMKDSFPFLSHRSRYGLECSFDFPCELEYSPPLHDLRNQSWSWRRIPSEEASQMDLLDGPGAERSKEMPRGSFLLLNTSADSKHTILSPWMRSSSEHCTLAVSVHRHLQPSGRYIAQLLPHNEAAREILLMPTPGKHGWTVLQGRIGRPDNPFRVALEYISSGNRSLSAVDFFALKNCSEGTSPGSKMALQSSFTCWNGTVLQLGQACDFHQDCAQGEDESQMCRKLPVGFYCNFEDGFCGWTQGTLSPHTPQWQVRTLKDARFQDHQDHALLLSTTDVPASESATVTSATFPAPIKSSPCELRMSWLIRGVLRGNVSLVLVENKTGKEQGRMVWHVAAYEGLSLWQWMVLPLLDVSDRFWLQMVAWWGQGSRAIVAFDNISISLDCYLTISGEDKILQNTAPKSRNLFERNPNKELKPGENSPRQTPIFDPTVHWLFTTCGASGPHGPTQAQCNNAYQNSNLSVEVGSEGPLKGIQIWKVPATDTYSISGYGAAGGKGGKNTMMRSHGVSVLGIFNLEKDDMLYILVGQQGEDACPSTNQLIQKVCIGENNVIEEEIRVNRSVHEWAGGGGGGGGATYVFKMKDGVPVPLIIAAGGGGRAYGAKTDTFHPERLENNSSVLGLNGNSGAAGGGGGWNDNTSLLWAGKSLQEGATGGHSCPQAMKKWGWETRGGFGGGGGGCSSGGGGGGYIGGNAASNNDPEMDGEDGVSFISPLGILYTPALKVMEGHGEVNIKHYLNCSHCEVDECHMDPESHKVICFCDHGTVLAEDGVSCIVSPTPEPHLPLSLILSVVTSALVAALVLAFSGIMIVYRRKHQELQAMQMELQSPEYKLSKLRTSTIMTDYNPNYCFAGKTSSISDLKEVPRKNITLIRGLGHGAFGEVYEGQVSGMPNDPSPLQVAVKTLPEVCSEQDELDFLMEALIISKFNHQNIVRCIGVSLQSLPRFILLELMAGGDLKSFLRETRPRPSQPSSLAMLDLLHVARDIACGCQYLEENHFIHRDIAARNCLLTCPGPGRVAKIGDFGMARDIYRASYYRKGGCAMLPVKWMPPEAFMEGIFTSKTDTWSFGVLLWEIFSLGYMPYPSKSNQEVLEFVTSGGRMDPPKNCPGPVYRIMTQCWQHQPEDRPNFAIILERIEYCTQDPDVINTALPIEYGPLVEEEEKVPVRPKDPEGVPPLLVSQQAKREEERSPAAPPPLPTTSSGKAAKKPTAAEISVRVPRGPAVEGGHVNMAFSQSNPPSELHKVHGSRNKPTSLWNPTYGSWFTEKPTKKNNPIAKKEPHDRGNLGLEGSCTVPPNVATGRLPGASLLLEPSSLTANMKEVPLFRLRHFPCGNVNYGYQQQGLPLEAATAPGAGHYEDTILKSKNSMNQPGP

[9] = biological target: Non-receptor tyrosine-protein kinase TNK1 (Homo sapiens) (UniProt Q13470); test: Inhibition of TNK1 at 1 uM
[10] = biological target: Protein-tyrosine kinase 2-beta (Homo sapiens) (UniProt Q14289); test: Inhibition of PYK2 at 1 uM
[11] = AUC in Sprague-Dawley rat at 5 mg/kg, po; format: ADME, organism-based; parameters: dose 5 mg/kg, route oral; settings: plasma
[12] = Antitumor activity against ALK-positive human SUP-M2 cells xenografted in SCID mouse assessed as partial tumor regression at 30 mg/kg, po bid after 12 days; format: functional
[13] = biological target: Epidermal growth factor receptor (Homo sapiens) (UniProt P00533); test: Inhibition of EGFR at 1 uM
[14] = biological target: Proto-oncogene tyrosine-protein kinase ROS (Homo sapiens) (UniProt P08922); test: Inhibition of ROS at 0.1 uM
[15] = biological target: T1, ALK tyrosine kinase receptor; test: Inhibition of ALK
SUP-M2 = test: Induction apoptosis in ALK-positive human SUP-M2 cells assessed as activation of caspase 3/7 by fluorometric assay; format: functional, cell-based
[16] = system: Receptor-type tyrosine-protein kinase FLT3 (Homo sapiens), P36888 [D835Y]; test: Inhibition of FLT3 D835Y mutant at 1 uM
[17] = system: Epidermal growth factor receptor (Homo sapiens), P00533 [L861Q]; test: Inhibition of EGFR L861Q mutant at 1 uM; format: protein assay
[18] = Growth inhibition of ALK-positive human SUP-M2 cells by MTS assay; format: functional, cell-based
KARPAS-299 = test: Induction apoptosis in ALK-positive human KARPAS299 cells assessed as activation of caspase 3/7 by fluorometric assay; format: functional, cell-based
[19] = biological target: Mitogen-activated protein kinase 8 (Homo sapiens) (UniProt P45983); test: Inhibition of JNK1 at 0.1 uM
Mus musculus [20] = test: Toxicity in SCID mouse xenografted with human SUP-M2 cells at 10 mg/kg, po BID for 12 days; format: organism-based; parameters: dose 10 mg/kg, route oral; settings: in vivo, 288 h
[21] = biological target: Leukocyte tyrosine kinase receptor (Homo sapiens) (UniProt P29376); test: Inhibition of LTK at 1 uM
[22] = biological target: Fibroblast growth factor receptor 4 (Homo sapiens) (UniProt P22455); test: Inhibition of FGFR4 at 1 uM
[23] = Ratio of drug level in tumor to plasma in SCID mouse; format: ADME; settings: tumor and plasma
[24] = biological target: Dual specificity mitogen-activated protein kinase kinase 1 (Homo sapiens) (UniProt Q02750); test: Inhibition of MEK1 at 1 uM
[25] = biological target: Serine/threonine-protein kinase PAK 3 (Homo sapiens) (UniProt O75914); test: Inhibition of PAK3 at 0.1 uM
[26] = system: Receptor-type tyrosine-protein kinase FLT3 (Homo sapiens), P36888 [N841I]; test: Inhibition of FLT3 N841I mutant at 0.1 uM

Epidermal growth factor receptor (Homo sapiens), P00533 [L861Q], sequence (P00533 whole entry L861Q): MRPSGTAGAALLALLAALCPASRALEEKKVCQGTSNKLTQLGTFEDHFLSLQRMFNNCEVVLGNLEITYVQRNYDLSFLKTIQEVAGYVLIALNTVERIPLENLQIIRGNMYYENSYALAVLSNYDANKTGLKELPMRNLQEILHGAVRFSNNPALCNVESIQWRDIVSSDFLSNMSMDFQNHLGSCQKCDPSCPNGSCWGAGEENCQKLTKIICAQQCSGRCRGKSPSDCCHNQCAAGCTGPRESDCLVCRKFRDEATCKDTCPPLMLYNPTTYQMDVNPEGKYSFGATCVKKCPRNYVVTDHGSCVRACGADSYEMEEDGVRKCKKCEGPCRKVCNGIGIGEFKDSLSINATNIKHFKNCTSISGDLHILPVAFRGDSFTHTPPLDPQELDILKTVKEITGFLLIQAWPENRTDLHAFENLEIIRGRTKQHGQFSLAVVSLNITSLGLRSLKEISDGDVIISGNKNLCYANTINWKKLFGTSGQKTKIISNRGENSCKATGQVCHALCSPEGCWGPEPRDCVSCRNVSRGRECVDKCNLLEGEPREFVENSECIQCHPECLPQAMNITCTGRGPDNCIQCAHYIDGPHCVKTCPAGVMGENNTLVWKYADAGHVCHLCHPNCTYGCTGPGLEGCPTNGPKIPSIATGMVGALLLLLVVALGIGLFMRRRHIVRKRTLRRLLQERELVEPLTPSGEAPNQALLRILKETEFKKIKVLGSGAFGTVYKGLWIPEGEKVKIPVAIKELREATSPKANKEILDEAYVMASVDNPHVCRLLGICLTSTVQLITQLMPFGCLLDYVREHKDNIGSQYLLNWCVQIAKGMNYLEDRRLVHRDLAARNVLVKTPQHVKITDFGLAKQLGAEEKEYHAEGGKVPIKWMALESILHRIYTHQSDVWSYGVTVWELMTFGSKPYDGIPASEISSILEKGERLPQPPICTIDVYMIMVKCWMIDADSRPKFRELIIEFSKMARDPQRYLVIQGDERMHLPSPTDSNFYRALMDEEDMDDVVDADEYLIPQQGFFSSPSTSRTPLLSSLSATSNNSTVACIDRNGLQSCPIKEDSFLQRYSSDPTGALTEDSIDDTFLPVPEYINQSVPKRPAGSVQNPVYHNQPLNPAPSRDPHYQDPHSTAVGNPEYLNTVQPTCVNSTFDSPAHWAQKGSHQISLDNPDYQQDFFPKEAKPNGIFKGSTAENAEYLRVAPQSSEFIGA
Ribosomal protein S6 kinase alpha-2 (Homo sapiens), sequence (Q15349 whole entry): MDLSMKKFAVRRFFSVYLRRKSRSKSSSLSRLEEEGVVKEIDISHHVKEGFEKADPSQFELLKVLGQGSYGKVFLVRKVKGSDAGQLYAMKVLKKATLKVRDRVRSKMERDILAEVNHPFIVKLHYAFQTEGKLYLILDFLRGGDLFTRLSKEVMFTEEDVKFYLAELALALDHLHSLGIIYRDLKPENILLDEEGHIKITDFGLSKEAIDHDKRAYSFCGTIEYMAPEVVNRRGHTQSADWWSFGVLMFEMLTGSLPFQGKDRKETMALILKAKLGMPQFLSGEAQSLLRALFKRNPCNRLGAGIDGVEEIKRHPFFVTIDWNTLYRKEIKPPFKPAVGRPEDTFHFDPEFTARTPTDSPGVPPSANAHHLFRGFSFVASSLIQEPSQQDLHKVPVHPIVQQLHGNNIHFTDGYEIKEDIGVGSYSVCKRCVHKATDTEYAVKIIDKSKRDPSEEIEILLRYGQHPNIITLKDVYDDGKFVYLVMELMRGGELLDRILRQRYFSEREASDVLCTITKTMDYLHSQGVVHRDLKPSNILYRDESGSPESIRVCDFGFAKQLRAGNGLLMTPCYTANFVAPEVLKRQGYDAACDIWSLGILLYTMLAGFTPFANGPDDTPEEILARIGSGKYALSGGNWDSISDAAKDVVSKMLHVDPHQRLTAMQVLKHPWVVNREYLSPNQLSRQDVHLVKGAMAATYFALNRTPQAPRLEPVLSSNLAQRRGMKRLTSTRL
Mast/stem cell growth factor receptor Kit (Homo sapiens), P10721 [D816V], sequence (P10721 whole entry D816V): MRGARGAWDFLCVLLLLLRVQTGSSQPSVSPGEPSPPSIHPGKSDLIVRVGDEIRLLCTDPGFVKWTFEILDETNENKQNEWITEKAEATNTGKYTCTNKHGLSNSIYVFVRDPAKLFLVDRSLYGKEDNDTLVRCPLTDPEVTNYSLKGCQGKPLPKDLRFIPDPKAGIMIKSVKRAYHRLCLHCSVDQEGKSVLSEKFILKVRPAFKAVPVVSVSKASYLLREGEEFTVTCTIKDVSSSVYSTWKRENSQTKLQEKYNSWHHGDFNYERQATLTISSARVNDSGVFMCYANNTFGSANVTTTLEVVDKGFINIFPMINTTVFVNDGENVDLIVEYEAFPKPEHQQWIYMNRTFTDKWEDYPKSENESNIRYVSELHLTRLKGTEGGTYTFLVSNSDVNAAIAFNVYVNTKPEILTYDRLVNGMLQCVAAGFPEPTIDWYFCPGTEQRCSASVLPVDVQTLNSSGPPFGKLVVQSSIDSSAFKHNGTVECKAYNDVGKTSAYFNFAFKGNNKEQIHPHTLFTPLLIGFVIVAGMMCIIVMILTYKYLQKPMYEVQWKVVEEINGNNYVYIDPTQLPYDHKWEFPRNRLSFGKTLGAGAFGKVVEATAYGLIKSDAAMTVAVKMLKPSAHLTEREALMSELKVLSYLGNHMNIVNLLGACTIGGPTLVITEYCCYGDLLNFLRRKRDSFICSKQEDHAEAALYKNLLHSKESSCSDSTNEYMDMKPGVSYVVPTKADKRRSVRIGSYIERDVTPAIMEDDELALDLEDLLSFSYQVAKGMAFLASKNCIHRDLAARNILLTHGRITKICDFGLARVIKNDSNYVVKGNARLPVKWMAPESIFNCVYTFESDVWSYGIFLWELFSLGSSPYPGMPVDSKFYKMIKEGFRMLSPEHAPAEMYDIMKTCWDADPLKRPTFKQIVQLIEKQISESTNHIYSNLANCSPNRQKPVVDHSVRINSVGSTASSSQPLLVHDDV
Mitogen-activated protein kinase 8 (Homo sapiens), sequence (P45983 whole entry): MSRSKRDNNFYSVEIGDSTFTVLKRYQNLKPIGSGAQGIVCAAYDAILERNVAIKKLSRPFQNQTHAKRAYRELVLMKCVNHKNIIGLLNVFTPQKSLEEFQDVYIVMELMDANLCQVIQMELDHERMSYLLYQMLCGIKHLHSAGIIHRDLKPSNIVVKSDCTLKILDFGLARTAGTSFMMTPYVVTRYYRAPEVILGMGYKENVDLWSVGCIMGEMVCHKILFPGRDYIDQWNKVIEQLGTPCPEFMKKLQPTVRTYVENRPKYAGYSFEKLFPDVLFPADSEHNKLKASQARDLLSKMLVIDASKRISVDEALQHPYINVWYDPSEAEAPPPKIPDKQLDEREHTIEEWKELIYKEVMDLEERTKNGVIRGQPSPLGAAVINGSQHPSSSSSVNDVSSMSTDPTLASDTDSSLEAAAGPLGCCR

Work on CCN1C(=O)CCCc2c1ccc(Nc1ncc(Cl)c(N[C@H]3[C@@H](C(N)=O)[C@@H]4C=C[C@H]3C4)n1)c2OC yielded a CL (Mus musculus [1]) of 41%, an inhibition [2] of 100% and an inhibition [3] of 68%. For the same compound, the Vd [4] was 2.1 L/kg, the Activity (Mus musculus [5]) was “Non-toxic” and the inhibition [6] was < 50%. For the same compound, the inhibition [7] was 94%, the IC50 [8] was 45 nM and the inhibition [9] was 100%. It also gave an inhibition [10] of 99%, an AUC [11] of 4090 ng·h/mL and an Activity [12] of 100%. It also gave an inhibition [13] of 96%, an inhibition [14] of 77% and an IC50 [15] of 14 nM. For the same compound, the Activity (SUP-M2) was “Active”, the inhibition [16] was 96% and the inhibition [17] was 93%. The EC50 [18] was 200 nM, the Activity (KARPAS-299) was “Active” and the inhibition [19] was 81%. For the same compound, the Activity (Mus musculus [20]) was “Non-toxic”, the inhibition [21] was 98% and the inhibition [22] was 98%. For the same compound, the Kp [23] was 1.3, the inhibition [24] was 91% and the inhibition [25] was < 50%. For the same compound, the inhibition [26] was < 50%.
